Test results published in patent US20070254894A1, “Novel small molecules with selective cytotoxicity against human microvascular endothelial cell proliferation” (priority 2006, published 2007).
Where two headings read alike, the source gives them in different places.

How the values were obtained:
[1] = system: HMVEC cells stimulated with VEGF 165; experiment: VEGF driven HMVEC proliferation screen; assay type: cell-based
Protocol: (§1) HMVEC cells were plated on collagen-coated plates at 2500 cells/well for 24 hours. Various concentrations of test compounds were then added to duplicate plates. […] Anti-FGF antibody (final concentration of 5 μg/mL) was added to four control wells as a standard inhibitor. At the same time the compounds were added, a T-zero plate was generated (Alamar blue was added to a plate and read after three hours). The plates with the compounds were incubated for one hour at 37° C., 5% carbon dioxide. At this point, b-FGF was added (final concentration of 2.5 ng/mL). Tween-20 (10 μL) was added to four additional control wells to represent total death and the plates were returned to the carbon dioxide incubator for 6 days.
The assay was run identically using VEGF in place of b-FGF. The final concentration of VEGF 165, in this mode, was 10 ng/mL. The control inhibitor was anti-VEGF antibody (final concentration of […]). All other conditions were the same.

[2] = system: HMVEC cells stimulated with b-FGF; experiment: b-FGF driven HMVEC proliferation screen; assay type: cell-based
Protocol: as §1

[3] = system: Primary Human Dermal Fibroblasts; experiment: in vitro; details: read-out: D. Fibroblast LC50; 6 days, Alamar blue
Protocol: (§2) In parallel with the VEGF and FGF screens, a normal cell toxicity assay was run. Primary Human Dermal Fibroblasts (Clonetics) were plated at 5000 cells/well. After 24 hours various concentrations of test compounds, were added in duplicate plates and 10% Tween-20 was added to four control wells to represent total death. At the same time a T-zero plate was generated. The plates were returned to the carbon dioxide incubator and on day 6 Alamar blue was added and the plates read after 3 hours.
(§3) Using a T-zero plate allows the observation of compounds that cause the cells to become static as well as inhibit growth.

[4] = system: retinal neovascularization; experiment: Mouse model of oxygen induced retinopathy (OIR), intravitreal administration; assay type: in vivo, C57BL/6 mouse; details: for amount of neovascularization: intravitreal once on day 12, 30 mg/ml, eyes examined day 17, versus controls; for pupils of treated animals: for the duration of the study
Protocol: Seven day old neonatal C57BL/6 mouse pups and their nursing dam were placed in an isobaric chamber that maintains a 75% oxygen level. The pups were returned to a normoxic environment at 12 days of age. The test articles and vehicle controls were administered intravitreally (once on day 12). Approximately one half of the pups from each litter were injected, the remaining pups were used as controls. Pups were euthanized on day 17 and their left/treated eye is processed for histological sectioning. […] The degree of neovascularization was measured by examining serial sections of the eye taken at 100 micron intervals. The numbers of endothelial nuclei that were internal but contiguous to the inner limiting membrane were counted. The number of nuclei from test article treated animals was compared with those counted in control animals. [table]

in vitro = details: human, primary human dermal fibroblasts, D. Fibroblast LC50, 6 days, Alamar blue
Protocol: as §2, §3

O=C(Nc1ccc(N2CCOCC2)c2cccnc12)c1ccccn1 [Compound 9]
CC50 [1]: 35 nM | CC50 [2]: 37 nM | CC50 [3]: > 10000 nM | amount of neovascularization [4]: a decrease in the amount of neovascularization | effect on neovascularization, Compound 9 compared with Compound 98 ([4]; intravitreal, 30 mg/ml, FIG. 1 and FIG. 2): A greater effect | pupils of treated animals ([4]; intravitreal): markedly dilated

CN1CCN(c2ccc(NC(=O)c3ccccn3)c3ncccc23)CC1 [Compound 98]
CC50 ([1]; Homo sapiens, HMVEC, 144 h, VEGF 165 10 ng/mL, 6 days, Alamar blue, read-out: VEGF LC50): 33 nM | CC50 ([2]; Homo sapiens, HMVEC, 144 h, b-FGF 2.5 ng/mL, 6 days, Alamar blue, read-out: b-FGF LC50): 36 nM | CC50 at 6 days (in vitro): > 10000 nM | amount of neovascularization [4]: a decrease in the amount of neovascularization | pupils of treated animals ([4]; intravitreal): markedly dilated
